The text below walks through data of US20230002372A1, “AZAINDOLE CARBOXAMIDE COMPOUNDS FOR THE TREATMENT OF MYCOBACTERIAL INFECTIONS” (THE GLOBAL ALLIANCE FOR TB DRUG DEVELOPMENT, INC., priority 2019, published 2023).

Molecules are shown by their SMILES. Converted amounts (≈) assume the structure as drawn.

For the assay, the system named is M tb H37Rv. Put plainly: MIC determination against M tb H37Rv (green fluorescent protein reporter assay; MIC-MABA). Format: cell-based, Mycobacterium tuberculosis. Particulars: Mycobacterium tuberculosis, H37RV, 240 h, read-out: M. TB H37Rv: MIC-MABA: MIC, M. tb H37Rv; 7H9 broth; 10 days exposure; MIC = lowest concentration inhibiting fluorescence by 90%.
For the compound `CC1(C)CCC(NC(=O)c2cc3c(F)c(Cl)ncc3[nH]2)CC1` [MPL-139, 5-chloro-N-(4,4-dimethylcyclohexyl)-4-fluoro-1H-pyrrolo[2,3-c]pyridine-2-carboxamide], the MIC came to 0.24 µg/mL (≈ 0.741 µM).

As to `O=C(NC1CC[Si]2(CCCCC2)CC1)c1cc2c(F)c(C(F)(F)F)ncc2[nH]1` [MPL-368, 4-fluoro-N-(6-silaspiro[5.5]undecan-3-yl)-5-(trifluoromethyl)-1H-pyrrolo[2,3-c]pyridine-2-carboxamide], the MIC amounted to 0.49 µg/mL (≈ 1.19 µM).

`COc1ccc2cc(C(=O)NC3CCC[Si](C)(C)CCC3)[nH]c2n1` [MPL-469, N-(1,1-dimethylsilocan-5-yl)-6-methoxy-1H-pyrrolo[2,3-b]pyridine-2-carboxamide]: the MIC is 0.206 µg/mL (≈ 0.596 µM).

`C[Si]1(C)CCC(NC(=O)c2cc3ccc(-c4cccnc4)nc3[nH]2)CC1` [MPL-389, N-(1,1-dimethylsilinan-4-yl)-6-(3-pyridyl)-1H-pyrrolo[2,3-b]pyridine-2-carboxamide]: the MIC was 0.216 µg/mL (≈ 0.593 µM).

As to `CC1(C)C2CCC1(C)C(NC(=O)c1cc3c(Cl)cncc3[nH]1)C2` (centres unmarked) [MPL-189, 4-chloro-N-(1,7,7-trimethylnorbornan-2-yl)-1H-pyrrolo[2,3-c]pyridine-2-carboxamide], the minimum inhibitory concentration (MIC) was 0.095 µg/mL (≈ 0.286 µM).

For the compound `Cc1nc(F)cc2cc(C(=O)N[C@H]3C[C@H]4C[C@@H]([C@@H]3C)C4(C)C)[nH]c12` [MPL-134, 5-fluoro-7-methyl-N-[(1S,2S,3S,5R)-2,6,6-trimethylnorpinan-3-yl]-1H-pyrrolo[2,3-c]pyridine-2-carboxamide], the MIC came out at 3.1 µg/mL (≈ 9.41 µM).

As to `O=C(NC1CCCCCCC1)c1cc2c(F)cncc2[nH]1` [MPL-093, N-cyclooctyl-4-fluoro-1H-pyrrolo[2,3-c]pyridine-2-carboxamide], the MIC was determined as 1.1 µg/mL (≈ 3.8 µM).

Turning to `Cc1cc2cc(C(=O)N[C@H]3C[C@H]4C[C@@H]([C@@H]3C)C4(C)C)[nH]c2c(F)n1` [MPL-122, 7-fluoro-5-methyl-N-[(1S,2S,3S,5R)-2,6,6-trimethylnorpinan-3-yl]-1H-pyrrolo[2,3-c]pyridine-2-carboxamide], the MIC was 3.1 µg/mL (≈ 9.41 µM).

Regarding `CC1(C)[C@H]2C[C@H](NC(=O)c3cc4c(F)c(F)cnc4[nH]3)[C@](C)(O)[C@@H]1C2` [MPL-219, 4,5-difluoro-N-[(1R,2R,3S,5R)-2-hydroxy-2,6,6-trimethyl-norpinan-3-yl]-1H-pyrrolo[2,3-b]pyridine-2-carboxamide], the MIC was 0.9 µg/mL (≈ 2.58 µM).

`CC1(C)CCC(NC(=O)c2cc3c(Cl)cncc3[nH]2)CC1` [MPL-003, 4-chloro-N-(4,4-dimethylcyclohexyl)-1H-pyrrolo[2,3-c]pyridine-2-carboxamide]: the MIC was 0.01 µg/mL (≈ 0.0327 µM).

`Cc1cc(Cl)c2cc(C(=O)NC3CCC[Si](C)(C)CCC3)[nH]c2n1` [MPL-305]: the MIC was found to be 0.015 µg/mL (≈ 0.0412 µM).

Turning to `Cc1nc2[nH]c(C(=O)N[C@H]3C[C@H]4C[C@H](C4(C)C)[C@@]3(C)O)cc2c(F)c1F` [MPL-294, 4,5-difluoro-N-[(1R,2R,3S,5R)-2-hydroxy-2,6,6-trimethyl-norpinan-3-yl]-6-methyl-1H-pyrrolo[2,3-b]pyridine-2-carboxamide], the MIC was over 1 µg/mL.

Consider `O=C(NC1CC[Si]2(CCCC2)CC1)c1cc2c(F)cncc2[nH]1` [MPL-254, 4-fluoro-N-(5-silaspiro[4.5]decan-8-yl)-1H-pyrrolo[2,3-c]pyridine-2-carboxamide], for which the MIC turned out to be 0.2 µg/mL (≈ 0.603 µM).

Turning to `CC1(C)C=CC(NC(=O)c2cc3c(F)ccnc3[nH]2)CC1` (centres unmarked) [MPL-160, N-(4,4-dimethylcyclohex-2-en-1-yl)-4-fluoro-1H-pyrrolo[2,3-b]pyridine-2-carboxamide], the MIC turned out to be 0.77 µg/mL (≈ 2.68 µM).

With `C[Si]1(C)CCCC(NC(=O)c2cc3c(Cl)c(Cl)ncc3[nH]2)CC1` (centres unmarked) [MPL-350, 4,5-dichloro-N-(1,1-dimethylsilepan-4-yl)-1H-pyrrolo[2,3-c]pyridine-2-carboxamide], the MIC is 0.247 µg/mL (≈ 0.667 µM).

On to `C[Si]1(C)CCC(NC(=O)c2cc3cc(-c4ccccc4)ncc3[nH]2)CC1` [MPL-445], for which the MIC was 0.119 µg/mL (≈ 0.327 µM).

Consider `Cc1cc2cc(C(=O)NC3CCCCCCC3)[nH]c2nc1C` [MPL-071, N-cyclooctyl-5,6-dimethyl-1H-pyrrolo[2,3-b]pyridine-2-carboxamide], for which the MIC is 0.049 µg/mL (≈ 0.164 µM).

Take `Cc1nc2[nH]c(C(=O)N[C@H]3CCC[Si](C)(C)CC3)cc2c(F)c1Cl` (single isomer, unassigned) [MPL-316B]: the minimum inhibitory concentration (MIC) is 0.25 µg/mL (≈ 0.679 µM).

With `Cc1c(C(F)(F)F)ncc2[nH]c(C(=O)NC3CC[Si](C)(C)CC3)cc12` [MPL-376, N-(1,1-dimethylsilinan-4-yl)-4-methyl-5-(trifluoromethyl)-1H-pyrrolo[2,3-c]pyridine-2-carboxamide], the minimum inhibitory concentration (MIC) was determined as 0.188 µg/mL (≈ 0.509 µM).

As to `O=C(NC1CCC2(CCC2)CC1)c1cc2c(F)ccnc2[nH]1` [MPL-002, 4-fluoro-N-spiro[3.5]nonan-7-yl-1H-pyrrolo[2,3-b]pyridine-2-carboxamide], the MIC came to 0.056 µg/mL (≈ 0.186 µM).

`C[Si]1(C)CCC(NC(=O)c2cc3c(C#N)ccnc3[nH]2)CC1` [MPL-110, 4-cyano-N-(1,1-dimethylsilinan-4-yl)-1H-pyrrolo[2,3-b]pyridine-2-carboxamide]: the MIC came to 0.022 µg/mL (≈ 0.0704 µM).

Take `C[Si]1(C)CCC(NC(=O)c2cc3c(Cl)c(Cl)ncc3[nH]2)CC1` [MPL-349, 4,5-dichloro-N-(1,1-dimethylsilinan-4-yl)-1H-pyrrolo[2,3-c]pyridine-2-carboxamide]: the minimum inhibitory concentration (MIC) is 0.068 µg/mL (≈ 0.191 µM).

For the compound `C[C@@H]1[C@@H](NC(=O)c2cc3cc(Cl)c(F)nc3[nH]2)C[C@H]2C[C@@H]1C2(C)C` [MPL-064, 5-chloro-6-fluoro-N-[(1S,2S,3S,5R)-2,6,6-trimethylnorpinan-3-yl]-1H-pyrrolo[2,3-b]pyridine-2-carboxamide], the minimum inhibitory concentration (MIC) was found to be 0.16 µg/mL (≈ 0.457 µM).

For the compound `Cc1cc(F)c2c(C)c(C(=O)NC3CC[Si]4(CCCCC4)CC3)[nH]c2n1` [MPL-281, 4-fluoro-3,6-dimethyl-N-(6-silaspiro[5.5]undecan-3-yl)-1H-pyrrolo[2,3-b]pyridine-2-carboxamide], the minimum inhibitory concentration (MIC) stood at 0.0151 µg/mL (≈ 0.0404 µM).

As for `C[C@@H]1[C@@H](NC(=O)c2cc3cc(Cl)ncc3[nH]2)C[C@H]2C[C@@H]1C2(C)C` [MPL-126, 5-chloro-N-[(1S,2S,3S,5R)-2,6,6-trimethylnorpinan-3-yl]-1H-pyrrolo[2,3-c]pyridine-2-carboxamide], the MIC worked out at 3.1 µg/mL (≈ 9.34 µM).

On to `C[Si]1(C)CCC(NC(=O)c2cc3c(F)c(C(F)(F)F)ncc3[nH]2)CC1` [MPL-322, N-(1,1-dimethylsilinan-4-yl)-4-fluoro-5-(trifluoromethyl)-1H-pyrrolo[2,3-c]pyridine-2-carboxamide], for which the MIC was found to be 0.484 µg/mL (≈ 1.3 µM).

As for `C[Si]1(C)CCCC(NC(=O)c2cc3c(F)c(Cl)ncc3[nH]2)CC1` (centres unmarked) [MPL-346, 5-chloro-N-(1,1-dimethylsilepan-4-yl)-4-fluoro-1H-pyrrolo[2,3-c]pyridine-2-carboxamide], the MIC was determined as 0.464 µg/mL (≈ 1.31 µM).

With `Cc1c(C(F)(F)F)ncc2[nH]c(C(=O)NC3CCC[Si](C)(C)CC3)cc12` (centres unmarked) [MPL-451, N-(1,1-dimethylsilepan-4-yl)-4-methyl-5-(trifluoromethyl)-1H-pyrrolo[2,3-c]pyridine-2-carboxamide], the MIC came out at 0.99 µg/mL (≈ 2.58 µM).

On to `Cc1nc2[nH]c(C(=O)NC3CCC[Si](C)(C)CC3)cc2c(F)c1F` (centres unmarked) [MPL-282, N-(1,1-dimethylsilepan-4-yl)-4,5-difluoro-6-methyl-1H-pyrrolo[2,3-b]pyridine-2-carboxamide], for which the minimum inhibitory concentration (MIC) was under 0.004 µg/mL.
